Test results from US20250255293A1, “TISSUE DECONTAMINATION AND PRESERVATION SYSTEM” (priority 2024, published 2025).

Experiments:
[1] = test system: chondrocytes of osteoarticular fracture fragments; test: Viable chondrocyte density, live-dead calcein AM / ethidium homodimer assay (Example 3); assay type: cell-based, canine; conditions: for Viable Chondrocyte Density, mean (SD): 20 min immersion (10% povidone-iodine or 0.002% chlorhexidine)
Text: Purpose-bred hounds (n=16) were humanely euthanized, immediately after which an open articular fracture in both elbows (n=32) was created using a captive bolt pistol. Each dog was positioned in sternal recumbency with one forelimb extended and secured in a custom made positioning apparatus. Fur was not clipped and no aseptic preparation or techniques were implemented. A captive bolt stunner pistol with a 4.75-inch penetrating pin and 1.25 grain cartridge was centered on the cranial (anterior) aspect of the distal humerus, immediately proximal to the joint. With firm pressure against the secured elbow, the pistol was discharged, and the procedure was repeated for the contralateral elbow. Soft tissues were removed aseptically and the distal humerus (n=32), proximal radius (n=32), and trochlea (n=32) were osteotomized and processed under operating room conditions in 1 of 3 ways: 1) Betadine ([…]): 0.9% saline irrigation (1 L), 10% povidone-iodine solution immersion (20 min), saline irrigation; 2) Chlorhexidine (n=42): saline irrigation, 0.002% chlorhexidine solution immersion (20 min), saline irrigation; 3) Control (n=12): untreated. Each osteoarticular fragment was placed in 200 ml of MOPS® solution (500 ml DMEM, 5 ml ITS (insulin (10 mg/L), transferrin 55 mg/L), selenium (6.7 μg/L)), 5 ml total penicillin (100 U/ml), streptomycin (100 μg/ml), amphotericin B (2.5 μg/ml), 5 ml L-glutamine (2 mM), 5 ml non-essential amino acids (0.1 mM), 1 ml ascorbic acid (50 ng/ml), and 5.46 ml dexamethasone (0.1 μM)) in a sterile container and stored under standard room temperature and humidity conditions for 7 (n=46) or 14 (n=48) days. At each time point, viable chondrocyte density (VCD) and quantitative microbial culture assessments were assayed, yielding a count of colony forming units (CFU) per specimen.
Viable chondrocyte density (VCD) was evaluated using a live-dead calcein AM (live stain) and ethidium homodimer (dead stain) assay, as previously described (Cook, et al., Am. J. Sports Med. 44:1260-1268, 2016). A minimum of two images from each osteochondral fragment were assessed via fluorescent microscopy. The VCD was determined by counting the number of viable cells in each image and dividing this by the area of the tissue in the image (#of viable cells/area of cartilage tissue mm^2). This methodology was aimed at providing an objective and quantifiable assessment of cell viability post-treatment.
Univariate comparison of VCD and CFU were performed via Kruskal-Wallis and Chi-squared test. Multivariate linear regression was used, controlling for osteotomy site and storage time, to determine the correlation between processing method and VCD or CFU. Data manipulation and statistical analysis were performed using R software.

Staphylococcus aureus = conditions: 20-minute immersion in 2% chlorhexidine, grossly contaminated bone segments; cited from earlier work

[H]/N=C(\N/C(=N/[H])NCCCCCCNC(=N)NC(=N)Nc1ccc(Cl)cc1)Nc1ccc(Cl)cc1 [Chlorhexidine, chlorhexidine gluconate]
mean VCD ([1]; at 7 days): 772
mean VCD ([1]; at 14 days): 710
increase of VCD relative to control treatment ([1]; multivariate linear regression, controlling for storage timing and osteotomy site): 377 VCD
maintenance of chondrocyte viability (in words) ([1]; saline irrigation, 0.002% chlorhexidine immersion, room temperature storage in MOPS): maintaining chondrocyte viability for up to 14 days
Viable Chondrocyte Density, mean (SD) ([1]; storage time 7 days in MOPS at room temperature): 772.3 (257.0) mm^−2
Viable Chondrocyte Density, mean (SD) ([1]; storage time 14 days in MOPS at room temperature): 709.5 (338.0) mm^−2
removal of Staphylococcus aureus burden (Staphylococcus aureus): > 99%
